Assay results: patent publication US7998932B2, “Inhibition of angiogenesis by neutrophil alpha-defensins” (The Trustees of the University of Pennsylvania, priority 2003, dated 2011)

System: HUVEC
Assay: HUVEC proliferation by BrdU incorporation
Format: cell-based, human
Settings: over a period of 24 hours; 10 ng/ml VEGF or 1 μM sphingosine-1-phosphate
Description: Cell proliferation: Endothelial cell proliferation was determined by measuring the incorporation of bromodeoxyuridine (BrdU). Endothelial cells were plated onto 96-well plates and incubated for 12 hours after which the medium was changed to MCDB-131 containing 0.05% FCS. Cells were then incubated for 24 hours in the absence or presence of stimuli or competitors. BrdU was added to the medium during the last 6 hours of incubation. The cells were then fixed and cell proliferation was quantified with a standardized calorimetric immunoassay (Roche Diagnostics, Mannheim, Germany) according to the manufacturer's instructions.

Compound | increase of DNA synthesis in HUVEC
CCCCCCCCCCCCC/C=C/[C@@H](O)[C@@H](N)COP(=O)(O)O [sphingosine-1-phosphate] | approximately two-fold
VEGF | approximately two-fold
